Assay results reported in article PMC8892843 (The Science of the total environment, 2021).

Columns and labels:
[1] = target: nicotinic receptor (nAChR) found in C. dilutus; test: competitive [3H]imidacloprid displacement, filtration; assay type: binding, Chironomus dilutus; conditions: 1 nM [3H]IMI, pH 7.0, 20 °C, crude microsomes 100 μg/mL
[2] = target: nicotinic receptor (nAChR) found in H. azteca; test: as above; assay type: binding, Hyalella azteca; conditions: 1 nM [3H]IMI, pH 7.0, 20 °C, crude microsomes 100 μg/mL

## O=[N+]([O-])N=C1NCCN1Cc1ccc(Cl)nc1 [imidacloprid]
[1]
  IC50: 8.04 nM
[2]
  IC50: 8.86 nM
